Experimental data: article PMC9008576, “Characterization of Agarolytic Pathway in a Terrestrial Bacterium Cohnella sp. LGH” (Frontiers in Microbiology, 2022)

Experiments:
CL5012 = tested on: T1, CL5012; test: L-AHG release, non-linear regression; format: biochemical, Cohnella sp. LGH; conditions: 10 mM Tris-HCl pH 8.0, 35°C, 10 min, 0.5–7.5 mg/ml substrate
T1 construct: pET29a (NdeI/XhoI), E. coli BL21(DE3) pLysS, Ni-NTA (C-terminal His tag likely); GH117

AgWH2A = molecular target: T2, AgWH2A (Agarivorans gilvus, UniProt A0A2Z4WWH8); test: TLC of products; format: biochemical; conditions: 10 mM potassium phosphate pH 7.5, 30°C, 4 h; positive control enzyme
T2 construct: gene lacZ; pET29a (SalI/XhoI), E. coli BL21(DE3) pLysS, Ni-NTA (vector tags kept)
T2 sequence (A0A2Z4WWH8 1-753): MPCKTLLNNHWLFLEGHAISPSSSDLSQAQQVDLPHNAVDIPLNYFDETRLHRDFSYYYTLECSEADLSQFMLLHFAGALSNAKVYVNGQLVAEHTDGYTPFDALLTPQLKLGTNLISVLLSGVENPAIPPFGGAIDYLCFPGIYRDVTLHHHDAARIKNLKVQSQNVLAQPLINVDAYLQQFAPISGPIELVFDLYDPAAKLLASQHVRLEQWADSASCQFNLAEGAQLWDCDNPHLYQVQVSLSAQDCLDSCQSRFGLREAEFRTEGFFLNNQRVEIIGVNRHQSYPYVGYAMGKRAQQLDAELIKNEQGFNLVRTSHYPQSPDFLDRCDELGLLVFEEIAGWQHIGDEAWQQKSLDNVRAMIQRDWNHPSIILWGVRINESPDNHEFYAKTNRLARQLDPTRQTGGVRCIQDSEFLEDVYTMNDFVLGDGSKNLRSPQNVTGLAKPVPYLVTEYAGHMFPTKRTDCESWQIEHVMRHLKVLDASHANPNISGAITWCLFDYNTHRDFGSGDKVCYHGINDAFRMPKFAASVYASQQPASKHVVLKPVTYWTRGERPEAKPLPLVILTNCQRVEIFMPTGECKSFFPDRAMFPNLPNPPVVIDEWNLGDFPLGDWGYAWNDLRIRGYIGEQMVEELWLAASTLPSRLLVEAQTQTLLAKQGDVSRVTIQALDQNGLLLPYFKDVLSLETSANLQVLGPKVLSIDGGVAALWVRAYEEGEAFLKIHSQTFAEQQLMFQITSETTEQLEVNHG

CL4994 = tested on: T3, CL4994; test: agarotriose consumption, non-linear regression; format: biochemical, Cohnella sp. LGH; conditions: 10 mM potassium phosphate pH 7.0, 30°C, 10 min, 0.5–7.5 mg/ml substrate
T3 construct: pET29a (KpnI/XhoI), E. coli BL21(DE3) pLysS, Ni-NTA (vector tags kept); GH2

SMILES	Km (CL5012) [mg ml^–1]	TLC of products (AgWH2A)	Km (CL4994) [mg ml^–1]
OC[C@H]1OC(O)[C@H](O)[C@@H](O[C@@H]2O[C@H]3CO[C@@H]([C@@H]2O)[C@@H]3O)[C@H]1O (stereo partly drawn) [neoagarobiose]	4.45		
OC[C@H]1O[C@@H](O[C@H]2[C@H]3OC[C@@H]2O[C@@H](O[C@H]2[C@@H](O)[C@@H](CO)OC(O)[C@@H]2O)[C@H]3O)[C@H](O)[C@@H](O)[C@H]1O (stereo partly drawn) [agarotriose]		depolymerization products of agarotriose by the reported ABG AgWH2A	3.90
